Assay results from publication PMC3653958, “Identification of Functionally Distinct Na-HCO3 Co-Transporters in Colon” (PLoS ONE, 2013).

Target: T1, NBCe1B/C (electrogenic Na-HCO3 cotransporter) (Rattus norvegicus, UniProt Q9JI66)
T1 construct: gene Slc4a4; native transporter in basolateral membrane vesicles of rat proximal colon (amiloride-insensitive component)
T1 sequence (Q9JI66 1-1079): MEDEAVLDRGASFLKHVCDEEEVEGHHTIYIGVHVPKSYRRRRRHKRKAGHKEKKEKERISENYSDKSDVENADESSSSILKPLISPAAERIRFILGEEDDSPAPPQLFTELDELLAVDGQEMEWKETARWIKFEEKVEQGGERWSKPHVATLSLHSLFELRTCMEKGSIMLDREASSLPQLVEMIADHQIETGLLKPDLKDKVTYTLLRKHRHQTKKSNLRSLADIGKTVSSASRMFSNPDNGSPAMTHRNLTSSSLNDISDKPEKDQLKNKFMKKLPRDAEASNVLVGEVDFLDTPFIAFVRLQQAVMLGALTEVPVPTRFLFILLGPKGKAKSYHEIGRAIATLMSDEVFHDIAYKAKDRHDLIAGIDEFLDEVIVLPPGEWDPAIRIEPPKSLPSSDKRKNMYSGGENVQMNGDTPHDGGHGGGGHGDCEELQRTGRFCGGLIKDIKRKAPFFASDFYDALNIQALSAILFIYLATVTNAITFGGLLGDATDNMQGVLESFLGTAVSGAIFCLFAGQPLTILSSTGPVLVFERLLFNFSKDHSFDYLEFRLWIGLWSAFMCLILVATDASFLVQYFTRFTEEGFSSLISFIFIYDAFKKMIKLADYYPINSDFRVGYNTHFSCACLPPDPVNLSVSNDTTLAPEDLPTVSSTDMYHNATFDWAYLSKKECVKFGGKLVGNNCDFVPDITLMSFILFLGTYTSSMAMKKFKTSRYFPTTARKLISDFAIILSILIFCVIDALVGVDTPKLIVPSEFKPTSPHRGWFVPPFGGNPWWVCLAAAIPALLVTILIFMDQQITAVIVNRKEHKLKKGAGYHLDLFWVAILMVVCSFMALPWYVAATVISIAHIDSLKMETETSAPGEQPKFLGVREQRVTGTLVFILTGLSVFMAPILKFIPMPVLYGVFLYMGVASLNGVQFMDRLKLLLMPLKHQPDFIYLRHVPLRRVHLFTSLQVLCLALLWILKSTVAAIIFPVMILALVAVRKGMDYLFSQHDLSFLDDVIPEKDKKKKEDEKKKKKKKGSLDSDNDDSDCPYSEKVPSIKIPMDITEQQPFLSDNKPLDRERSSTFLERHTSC
Experiment: inhibition of proton/HCO3 gradient-driven […] uptake in native membrane vesicles
Assay type: biochemical

Ki: 8.9 ± 1.2 µM
SMILES: O=S(=O)(O)c1cc(N=C=S)ccc1/C=C/c1ccc(N=C=S)cc1S(=O)(=O)O [DIDS]
